Results reported in patent publication US20160310613A1, “METHODS AND COMPOSITIONS FOR OVERCOMING DRUG-RESISTANCE IN CANCER BY TARGETED DELIVERY OF PRO-DRUG-NANO-POLYMERS” (priority 2015, published 2016).
≈ marks a conversion by molar mass, not a printed value.

What was measured:
[1] = tested on: MCF-7 MDR Doxorubicin resistant cells; assay: Epi-fluorescent microscopy of doxorubicin delivery and retention
[2] = tested on: SKOV-3 TR resistant Ovarian cancer cells; assay: cells; assay type: cell-based
Protocol: Human ovarian cancer (SKOV-3 TR) resistant cells were cultured using the same protocol described for culturing SKOV-3 TR resistant cells in Example 8 above. Cultured cells (SKOV-3 TR) were incubated with bispecific anti-Her-2 Affibody-anti-DTPA antibody at a concentration of 20 μg/ml for 24 hours at 37° C. […] After 24-48 h incubation at 37° C., viability was assessed by Trypan Blue exclusion test using CellTiter Blue® (Promega, Madison, Wis.) following the manufacturer's protocol as described above in Example 8.
SKOV-3 sensitive and SKOV-3 TR resistant Ovarian cancer cells were cultured using the same protocol described in Examples 8 and 9 above. Cultured cells were incubated with bispecific anti-Her-2 Affibody-anti-DTPA antibody.

[3] = tested on: SKOV-3 sensitive Ovarian cancer cells; assay: cells; settings: Homo sapiens, SK-OV-3, read-out: IC50 value in SKOV-3 sensitive cells
Protocol: (§1) Human ovarian cancer (SKOV-3) sensitive cells were grown in six well plates. Aliquots of 5000 cells/well were seeded in the cell culture treated 96 well plates and were grown for 24 hours. Cultured cells (SKOV-3) were incubated with bispecific anti-Her-2 Affibody-anti-DTPA antibody at a concentration of 20 or 40 μg/ml for 24 hours at 37° C. […] After 24 h incubation at 37° C., viability was assessed by Trypan Blue exclusion test using CellTiter Blue® (Promega, Madison, Wis.) following the manufacturer's protocol. Briefly, media was removed from plates containing cells incubated with agent-polymer conjugates. The plates were washed 2× with 200 μl of complete medium and then incubated with 50 μl of 1:50 dilution of CellTiter Blue® reagent for 2 hours. Cell viability was then evaluated by measuring the fluorescence (excitation 530 nm, emission 590 nm) using a Synergy HT multi-21 detection microplate reader (Biotek, Winooski, Vt.). Cells treated with complete media alone were used as controls to calculate the 100% cell viability and the studies were carried out in triplicates in at least 3 different assays. […] The above studies were repeated for 48 h incubation time.

[4] = tested on: SKOV-3 sensitive Ovarian cancer cells; settings: cells pretargeted with anti-HER2/neu affibody, FIG. 7
Protocol: as §1

COc1cccc2c1C(=O)c1c(O)c3c(c(O)c1C2=O)C[C@@](O)(C(=O)CO)C[C@@H]3O[C@H]1C[C@H](N)[C@H](O)[C@H](C)O1 [free Dox, doxorubicin]
Doxorubicin fluorescence in cells ([1]; 15 μg/ml, incubated 5 h, FIG. 8A): nuclear sequestration
Doxorubicin uptake in cells ([1]; incubated 1 h, then Dox free medium 4 h, FIG. 8B): less Dox uptake occurred

CC(=O)O[C@H]1C(=O)[C@@]2(C)[C@H]([C@H](OC(=O)c3ccccc3)[C@]3(O)C[C@H](OC(=O)[C@H](O)[C@@H](NC(=O)c4ccccc4)c4ccccc4)C(C)=C1C3(C)C)[C@]1(OC(C)=O)CO[C@@H]1C[C@@H]2O [free PTXL, Paclitaxel]
IC50 ([2]; Homo sapiens, SKOV3TR, free drug, FIG. 7): 0.936 µg/mL (≈ 1.1 µM)
IC50 in SKOV-3 TR resistant cells relative to SKOV-3 sensitive cells ([2]; ratio resistant/sensitive): about 10 times higher
IC50 [3]: 0.089 µg/mL (≈ 0.104 µM)

DTPA-Doxorubicin-Poly Glutamic acid [D-Dox-PGA]
Doxorubicin retention in cells ([1]; pretargeted with bispecific biotinylated-anti-DTPA antibody, 1 h, then Dox free media 4 h, FIG. 8C): more Dox is retained

DTPA-Paclitaxel-Poly Glutamic acid [D-PTXL-PGA]
IC50 value in paclitaxel sensitive ovarian cancer cells [4]: 0.089 µg/mL
Amount needed to obtain 50% cell killing in SKOV-3 TR cells relative to free PTXL ([2]; SKOV-3 TR cells): 5 times less
IC50 value in paclitaxel resistant ovarian cancer cells ([2]; cells pretargeted with anti-HER2/neu affibody, FIG. 7): 0.069 µg/mL
Concentration needed to obtain 50% cell killing in SKOV-3 TR resistant relative to SKOV-3 sensitive cells ([2]; ratio resistant/sensitive): 2 time more
